Consider 29 compounds from patent publication US20260028365A1 (BIOGEN MA INC., priority 2022, published 2026).

Read-outs that look alike come from different tables or passages of the source.

Usually IC50 stands for the point on the concentration scale where inhibition reaches its midpoint.

One assay deals with Tyk2 (Homo sapiens (Human), UniProt P29597). As to the kind of experiment: pSTAT4 Cell Assay (MSD, NK92 cells). It counts as cell-based.
The target of a further assay is JH2 domain of human Tyk2 (Homo sapiens (Human), UniProt P29597). As to the kind of experiment: JH2 Biochemical Assay (TR-FRET probe displacement). It counts as binding. On the technique in general: Time-resolved FRET reads energy transfer from a long-lived donor to a nearby acceptor.
Chain of JH2 domain of human Tyk2 (P29597 575-876): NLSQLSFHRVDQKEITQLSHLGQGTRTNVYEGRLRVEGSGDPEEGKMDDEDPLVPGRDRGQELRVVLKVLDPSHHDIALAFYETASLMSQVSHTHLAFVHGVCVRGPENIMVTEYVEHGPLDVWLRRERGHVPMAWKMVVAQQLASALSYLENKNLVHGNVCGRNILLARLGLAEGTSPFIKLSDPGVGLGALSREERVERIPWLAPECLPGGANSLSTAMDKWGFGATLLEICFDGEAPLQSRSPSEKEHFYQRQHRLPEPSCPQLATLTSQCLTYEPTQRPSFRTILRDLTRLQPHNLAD
The mark [1] stands for this setting: JH2 domain of human Tyk2, TR-FRET probe displacement.
[2] abbreviates: TR-FRET probe displacement, JH2 domain of human Tyk2.
Setting [3] is: TR-FRET probe displacement, JH2 domain.

Chain of Tyk2 (P29597 whole entry, the tested form may be a part): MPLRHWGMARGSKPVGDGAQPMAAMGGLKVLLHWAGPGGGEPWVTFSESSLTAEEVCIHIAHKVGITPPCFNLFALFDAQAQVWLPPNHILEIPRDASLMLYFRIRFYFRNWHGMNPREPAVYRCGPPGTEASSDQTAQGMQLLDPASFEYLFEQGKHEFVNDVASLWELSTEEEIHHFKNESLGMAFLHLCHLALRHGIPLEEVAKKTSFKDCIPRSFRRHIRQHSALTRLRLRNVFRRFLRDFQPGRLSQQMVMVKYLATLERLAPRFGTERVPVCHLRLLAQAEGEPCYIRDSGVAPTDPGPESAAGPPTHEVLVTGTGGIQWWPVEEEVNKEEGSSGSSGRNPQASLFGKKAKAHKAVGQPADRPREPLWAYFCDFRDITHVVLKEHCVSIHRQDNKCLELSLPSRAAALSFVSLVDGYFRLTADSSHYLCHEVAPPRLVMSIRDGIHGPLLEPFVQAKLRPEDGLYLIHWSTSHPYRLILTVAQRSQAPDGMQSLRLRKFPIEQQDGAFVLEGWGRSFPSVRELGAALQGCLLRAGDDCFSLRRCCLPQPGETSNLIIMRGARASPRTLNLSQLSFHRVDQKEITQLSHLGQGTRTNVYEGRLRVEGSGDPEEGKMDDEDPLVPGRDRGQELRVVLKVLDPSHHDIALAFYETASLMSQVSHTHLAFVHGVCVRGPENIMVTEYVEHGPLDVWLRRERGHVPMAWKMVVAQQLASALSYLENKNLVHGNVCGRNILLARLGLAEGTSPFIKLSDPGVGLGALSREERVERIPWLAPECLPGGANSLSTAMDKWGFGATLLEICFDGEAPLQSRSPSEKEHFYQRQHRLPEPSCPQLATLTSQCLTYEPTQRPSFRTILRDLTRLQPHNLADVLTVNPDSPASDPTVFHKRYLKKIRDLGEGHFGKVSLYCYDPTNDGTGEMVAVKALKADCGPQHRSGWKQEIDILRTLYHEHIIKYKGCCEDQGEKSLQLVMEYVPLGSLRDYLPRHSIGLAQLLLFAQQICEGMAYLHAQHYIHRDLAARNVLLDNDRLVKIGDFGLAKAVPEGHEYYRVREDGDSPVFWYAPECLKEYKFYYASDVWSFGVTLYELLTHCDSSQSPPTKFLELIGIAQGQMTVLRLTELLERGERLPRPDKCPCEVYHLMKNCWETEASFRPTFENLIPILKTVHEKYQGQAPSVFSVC

In the case of `[2H]C([2H])([2H])Oc1cnc(NC(C)=O)cc1Nc1cc(OC2CC2)nc(C(C)(F)F)n1` [Example 415, N-(4-((6-cyclopropoxy-2-(1,1-difluoroethyl)pyrimidin-4-yl)amino)-5-(methoxy-d3)pyridin-2-yl)acetamide], the IC50 on Tyk2 (MSD) and at JH2 domain of human Tyk2 (setting [1]) was ≤ 10 nM throughout.
For `CC(=O)Nc1cc(Nc2cc(C)nc(C(C)(F)F)n2)c(OCCCC2CCCO2)cn1` (stereo not shown) [Example 434, N-(4-((2-(1,1-difluoroethyl)-6-methylpyrimidin-4-yl)amino)-5-(3-(tetrahydrofuran-2-yl)propoxy)pyridin-2-yl)acetamide], the IC50 against Tyk2 (MSD) is 10 to 100 nM; at JH2 domain of human Tyk2 (setting [1]), ≤ 10 nM.
On the same counts, the results for `CCCn1ccc(-c2cnc(NC(C)=O)cc2Nc2ccnc(C(C)(F)F)n2)n1` [Example 705, N-(4-((2-(1,1-difluoroethyl)pyrimidin-4-yl)amino)-5-(1-propyl-1H-pyrazol-3-yl)pyridin-2-yl)acetamide] are ≤ 10 nM and ≤ 10 nM.
Turning to `CCOc1cnc(NC(C)=O)cc1Nc1cc(-c2cnn(CCN3CCOCC3)c2)nc(C(C)(F)F)n1` [Example 313, N-(4-((2-(1,1-difluoroethyl)-6-(1-(2-morpholinoethyl)-1H-pyrazol-4-yl)pyrimidin-4-yl)amino)-5-ethoxypyridin-2-yl)acetamide], the values for the half-inhibitory concentration (IC50) against Tyk2 (MSD) and on JH2 domain of human Tyk2 (setting [2]) were 10 to 100 nM and ≤ 10 nM, respectively.
On the same counts, the results for `CC(=O)Nc1cc(Nc2ccnc(C(C)(F)F)n2)c(-c2ccnc(C)n2)cn1` [Example 173, N-(4-((2-(1,1-difluoroethyl)pyrimidin-4-yl)amino)-5-(2-methylpyrimidin-4-yl)pyridin-2-yl)acetamide] are ≤ 10 nM and ≤ 10 nM.
For the compound `COc1cnc(NC(C)=O)cc1Nc1nc(C)cc(C(F)(F)F)n1` [Example 436, N-(5-methoxy-4-((4-methyl-6-(trifluoromethyl)pyrimidin-2-yl)amino)pyridin-2-yl)acetamide], the IC50 was ≥ 1000 nM against Tyk2 (MSD) and 100 to 1000 nM on JH2 domain of human Tyk2 (setting [1]).
On the same counts, the results for `CC(=O)Nc1cc(Nc2cc(C)nc(C(C)(F)F)n2)c(-c2cnc(C(C)N(C)C)cn2)cn1` (stereo not shown) [Example 741, N-(4-((2-(1,1-difluoroethyl)-6-methylpyrimidin-4-yl)amino)-5-(5-(1-(dimethylamino)ethyl)pyrazin-2-yl)pyridin-2-yl)acetamide] are ≤ 10 nM and ≤ 10 nM.
On the same counts, the results for `CCOc1cnc(NC(C)=O)cc1Nc1cc(-c2cnn(CC(C)C)c2)nc(C(C)(F)F)n1` [Example 371, N-(4-((2-(1,1-difluoroethyl)-6-(1-isobutyl-1H-pyrazol-4-yl)pyrimidin-4-yl)amino)-5-ethoxypyridin-2-yl)acetamide] are ≤ 10 nM and ≤ 10 nM.
In the case of `COCc1cnc(NC(C)=O)cc1Nc1ccc(-c2ccn(C)n2)c(OC)n1` [Example 48, N-(4-((6-methoxy-5-(1-methyl-1H-pyrazol-3-yl)pyridin-2-yl)amino)-5-(methoxymethyl)pyridin-2-yl)acetamide], the IC50 against Tyk2 (MSD) was ≥ 1000 nM; on JH2 domain of human Tyk2 (setting [2]), 100 to 1000 nM.
On to `COc1ncc(-c2cnc(NC(C)=O)cc2Nc2ccnc(C(C)(F)F)n2)nc1OC` [Example 686, N-(4-((2-(1,1-difluoroethyl)pyrimidin-4-yl)amino)-5-(5,6-dimethoxypyrazin-2-yl)pyridin-2-yl)acetamide], for which the half-maximal inhibitory concentration (IC50) on Tyk2 (MSD) is ≥ 1000 nM; at JH2 domain of human Tyk2 (setting [1]), 10 to 100 nM.
With `CC(=O)Nc1cc(Nc2cccc(C(C)(F)F)n2)c(-c2cn(C)c(=O)cn2)cn1` [Example 159, N-(4-((6-(1,1-difluoroethyl)pyridin-2-yl)amino)-5-(4-methyl-5-oxo-4,5-dihydropyrazin-2-yl)pyridin-2-yl)acetamide], the IC50 against Tyk2 (MSD) is 10 to 100 nM; at JH2 domain of human Tyk2 (setting [2]) it was ≤ 10 nM.
As for `CC(=O)Nc1cc(Nc2cc(C)nc(C(C)(F)F)n2)c(OCc2ccccc2)cn1` [Example 30, N-(5-(benzyloxy)-4-((2-(1,1-difluoroethyl)-6-methylpyrimidin-4-yl)amino)pyridin-2-yl)acetamide], the IC50 against Tyk2 (MSD) and at JH2 domain of human Tyk2 (setting [2]) was ≤ 10 nM each time.
In the case of `CC(=O)Nc1cc(Nc2cc(C)nc(C(C)(F)F)n2)c(-c2cc(CN3CCCC3)ccn2)cn1` [Example 805, N-(4′-((2-(1,1-difluoroethyl)-6-methylpyrimidin-4-yl)amino)-4-(pyrrolidin-1-ylmethyl)-[2,3′-bipyridin]-6′-yl)acetamide], the IC50 against Tyk2 was 10 to 100 nM; at JH2 domain of human Tyk2 (setting [3]), ≤ 10 nM.
Turning to `COc1cnc(NC(C)=O)cc1Nc1cc(O[C@H]2C[C@@H](F)C2)nc(C(C)(F)F)n1` [Example 461, N-(4-((2-(1,1-difluoroethyl)-6-((1s,3s)-3-fluorocyclobutoxy)pyrimidin-4-yl)amino)-5-methoxypyridin-2-yl)acetamide], the IC50 was 10 to 100 nM against Tyk2 (MSD) and ≤ 10 nM at JH2 domain of human Tyk2 (setting [1]).
As for `COCCc1cnn(-c2cnc(NC(C)=O)cc2Nc2cc(C)nc(C(C)(F)F)n2)c1` [Example 764, N-(4-((2-(1,1-difluoroethyl)-6-methylpyrimidin-4-yl)amino)-5-(4-(2-methoxyethyl)-1H-pyrazol-1-yl)pyridin-2-yl)acetamide], the IC50 against Tyk2 is 10 to 100 nM; on JH2 domain of human Tyk2 (setting [3]) it was ≤ 10 nM.
For the compound `CC(=O)Nc1cc(Nc2cc(C)nc(C(C)(F)F)n2)c(-c2cccc(C#N)n2)cn1` [Example 630, N-(6-cyanO4′-((2-(1,1-difluoroethyl)-6-methylpyrimidin-4-yl)amino)-[2,3′-bipyridin]-6′-yl)acetamide], the IC50 at Tyk2 (MSD) and on JH2 domain of human Tyk2 (setting [1]) was ≤ 10 nM throughout.
Consider `CC(=O)Nc1cc(Nc2cc(C)nc(C(C)(F)F)n2)c(OCc2cccc(F)c2)cn1` [Example 466, N-(4-((2-(1,1-difluoroethyl)-6-methylpyrimidin-4-yl)amino)-5-((3-fluorobenzyl)oxy)pyridin-2-yl)acetamide], for which the values for the IC50 on Tyk2 (MSD) and on JH2 domain of human Tyk2 (setting [1]) were 10 to 100 nM and ≤ 10 nM, respectively.
`CCc1cc(Nc2cc(NC(C)=O)ncc2OCCN2CCN(C)CC2)nc(C(C)(F)F)n1` [Example 71, N-(4-((2-(1,1-difluoroethyl)-6-ethylpyrimidin-4-yl)amino)-5-(2-(4-methylpiperazin-1-yl)ethoxy)pyridin-2-yl)acetamide]: the IC50 against Tyk2 (MSD) and at JH2 domain of human Tyk2 (setting [2]) was ≤ 10 nM each time.
With `CCOc1cnc(NC(C)=O)cc1Nc1cc(C)cc(C23COC(C2)C3)n1` [Example 95, N-(4-((6-(2-oxabicyclo[2.1.1]hexan-4-yl)-4-methylpyridin-2-yl)amino)-5-ethoxypyridin-2-yl)acetamide], the IC50 against Tyk2 (MSD) was in the range of 100 to 1000 nM; on JH2 domain of human Tyk2 (setting [2]), 10 to 100 nM.
As to `COCCOc1cnc(NC(C)=O)cc1Nc1cncc(C(C)(C)F)n1` [Example 439, N-(4-((6-(2-fluoropropan-2-yl)pyrazin-2-yl)amino)-5-(2-methoxyethoxy)pyridin-2-yl)acetamide], the figures for the IC50 against Tyk2 (MSD) and on JH2 domain of human Tyk2 (setting [1]) were 10 to 100 nM and ≤ 10 nM, respectively.
Take `COCc1ccc(-c2cnc(NC(C)=O)cc2Nc2ccnc(C3CCOC3)n2)nc1` (stereo not shown) [Example 567, N-(5-(methoxymethyl)-4′-((2-(tetrahydrofuran-3-yl)pyrimidin-4-yl)amino)-[2,3′-bipyridin]-6′-yl)acetamide]: the IC50 at Tyk2 (MSD) was 10 to 100 nM; at JH2 domain of human Tyk2 (setting [1]) it was ≤ 10 nM.
`COc1nc(C)cc(Nc2cc(NC(C)=O)ncc2-c2ccn(C)n2)n1` [Example 551, N-(4-((2-methoxy-6-methylpyrimidin-4-yl)amino)-5-(1-methyl-1H-pyrazol-3-yl)pyridin-2-yl)acetamide]: the IC50 against Tyk2 (MSD) is 10 to 100 nM; on JH2 domain of human Tyk2 (setting [1]), ≤ 10 nM.
For the compound `CCOc1cnc(NC(=O)COC)cc1Nc1cc(C)nc(C(C)(F)F)n1` [Example 26, N-(4-((2-(1,1-difluoroethyl)-6-methylpyrimidin-4-yl)amino)-5-ethoxypyridin-2-yl)-2-methoxyacetamide], the IC50 against Tyk2 (MSD) was 10 to 100 nM; at JH2 domain of human Tyk2 (setting [2]), ≤ 10 nM.
Regarding `CC(=O)Nc1cc(Nc2cc(C)nc(C(C)(F)F)n2)c(-c2cccc(C(C)O)n2)cn1` (racemic) [Example 638, rac-(R)-N-(4′-((2-(1,1-difluoroethyl)-6-methylpyrimidin-4-yl)amino)-6-(1-hydroxyethyl)-[2,3′-bipyridin]-6′-yl)acetamide], the IC50 against Tyk2 (MSD) and on JH2 domain of human Tyk2 (setting [1]) was ≤ 10 nM in each case.
For the compound `COc1nccc(-c2cnc(NC(C)=O)cc2Nc2ccnc(C(C)(C)F)n2)n1` [Example 180, N-(4-((2-(2-fluoropropan-2-yl)pyrimidin-4-yl)amino)-5-(2-methoxypyrimidin-4-yl)pyridin-2-yl)acetamide], the concentration for half-maximal inhibition (IC50) against Tyk2 (MSD) and at JH2 domain of human Tyk2 (setting [2]) was ≤ 10 nM each time.
On to `COc1cncc(Nc2cc(NC(C)=O)ncc2-c2ccc(F)cn2)n1` [Example 586, N-(5-fluorO4′-((6-methoxypyrazin-2-yl)amino)-[2,3′-bipyridin]-6′-yl)acetamide], for which the results for the IC50 on Tyk2 (MSD) and at JH2 domain of human Tyk2 (setting [1]) were 10 to 100 nM and ≤ 10 nM, respectively.
Regarding `CCc1cc(Nc2cc(NC(C)=O)ncc2-c2cnc(N(C)C)cn2)nc(C(C)(F)F)n1` [Example 856, N-(4-((2-(1,1-difluoroethyl)-6-ethylpyrimidin-4-yl)amino)-5-(5-(dimethylamino)pyrazin-2-yl)pyridin-2-yl)acetamide], the values for the IC50 on Tyk2 and at JH2 domain of human Tyk2 (setting [3]) were 10 to 100 nM and ≤ 10 nM, respectively.
On to `CCc1cc(Nc2cc(NC(C)=O)ncc2-c2ncc(F)cn2)nc(C(C)(F)F)n1` [Example 183, N-(4-((2-(1,1-difluoroethyl)-6-ethylpyrimidin-4-yl)amino)-5-(5-fluoropyrimidin-2-yl)pyridin-2-yl)acetamide], for which the IC50 against Tyk2 (MSD) was 10 to 100 nM; at JH2 domain of human Tyk2 (setting [2]), ≤ 10 nM.
On the same counts, the results for `CC(=O)Nc1cc(Nc2cc(C)nc(C(C)(F)F)n2)c(OCC2CC2(F)F)cn1` (stereo not shown) [Example 74, N-(5-((2,2-difluorocyclopropyl)methoxy)-4-((2-(1,1-difluoroethyl)-6-methylpyrimidin-4-yl)amino)pyridin-2-yl)acetamide] are 10 to 100 nM and ≤ 10 nM.
